Where “and” joins values, the source holds several entries; their conditions need not be identical. Equal values may be shown once. Inconclusive results and toxic doses are left out. How the source made its calls: active means survival T/C of 150% or more; inactive means T/C below 125% in these data.
System: CD2F1 mice, L1210 leukemia ip, survival T/C
Assay: NCI In Vivo Anticancer Drug Screen. Data for tumor model L1210 Leukemia (intraperitoneal) in CD2F1 (CDF1) mice
Settings: endpoint: mean survival time, higher = longer survival
In short: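 Transplantable tumor in mice; compound-treated vs vehicle-treated groups. Read-out = treated/control ratio of the measured endpoint.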

[1] = dose: 6.25 mg/kg/injection, schedule: Q01DX001 (ip), vehicle: saline with Tween-80
[2] = dose: 12.5 mg/kg/injection, schedule: Q01DX001 (ip), vehicle: saline with Tween-80
[3] = dose: 25.0 mg/kg/injection, schedule: Q01DX001 (ip), vehicle: saline with Tween-80
[4] = dose: 100.0 mg/kg/injection, schedule: Q01DX009 (ip), vehicle: saline with Tween-80

Measured: T/C

CC(CCC/C=C/CCCN(C)C(=N)N)CC(C)C1OC(=O)C(C)C(O)/C=C/C(C)C(O)C(C)C(O)C(C)C(O)CCCC(O)CC2(O)OC(CC(OC(=O)CC(=O)O)CC(O)CC(O)C(C)C(O)/C=C/C=C/C1C)CC(O)C2O (stereo not drawn)
inactive: dose: 5.5 mg/kg/injection, schedule: Q01DX009 (ip), vehicle: saline 100 % of control

CCCCCCCCCCCCCCCCCCNC(=O)C[N+](C)(C)Cc1ccccc1
inactive: dose: 6.25 mg/kg/injection, schedule: Q04DX003 (ip), vehicle: saline with Tween-80 103 % of control | dose: 12.5 mg/kg/injection, schedule: Q04DX003 (ip), vehicle: saline with Tween-80 97 % of control

CCCCOC(=O)c1ccccc1C(=O)O.[Cu+2]
inactive: [1] 100 % of control | [2] 96 % of control | [3] 103 % of control

CC(C(=O)c1cc(O)c(O)cc1C(O)(C(F)(F)F)C(F)(F)F)C(O)(C(F)(F)F)C(F)(F)F (stereo not drawn)
inactive: [4] 94 % of control | dose: 200.0 mg/kg/injection, schedule: Q01DX009 (ip), vehicle: saline with Tween-80 94 % of control | dose: 400.0 mg/kg/injection, schedule: Q01DX009 (ip), vehicle: saline with Tween-80 94 % of control

Cc1c(C=[N+]2CCCCC2)c2ccccc2n1C
inactive: dose: 12.5 mg/kg/injection, schedule: Q01DX009 (ip), vehicle: saline with Tween-80 95 % of control | dose: 25.0 mg/kg/injection, schedule: Q01DX009 (ip), vehicle: saline with Tween-80 95 % of control | dose: 50.0 mg/kg/injection, schedule: Q01DX009 (ip), vehicle: saline with Tween-80 93 % of control | [4] 87 % of control | dose: 100.0 mg/kg/injection, schedule: Q04DX002 (ip), vehicle: saline with Tween-80 100 % of control | dose: 400.0 mg/kg/injection, schedule: Q04DX002 (ip), vehicle: saline with Tween-80 112 % of control

N#CCCP(CCC#N)CCCCP(CCC#N)CCC#N
inactive: [1] 100 % of control | [2] 96 % of control | [3] 98 % of control and 102 % of control
